The source of these data is patent US9814734B2, “Bufalin liposome, preparation method therefor and application thereof” (THE FOURTH MILITARY MEDICAL UNIVERSITY, priority 2012, dated 2017).

Marks after values point to notes of the source that are not given here.

The subject of data set [1] is mice bearing L1210 leukemia. Nature of the data set: Therapeutic effect on mice bearing L1210 leukemia. Type of data set: in vivo, mouse. Particulars: ICR mice, i.p. daily, 1 mg/kg bufalin or 1 ml/kg Huachasu. On the procedure: Mouse L1210 leukemia cells are subcultured intraperitoneally in ICR mouse. The bufalin liposome is prepared according to the method of Example 1. Male ICR mice (weight of 20±2 g, 5 mice in each cage) are fed in an animal room under alternative 12-hour illumination and 12-hour darkness at a constant temperature of 25° C. and allowed free access to standard laboratory diet. The mice are inoculated intraperitoneally with 1×10^5 L1210 leukemia cell suspension under sterile condition, and randomly divided into 4 groups (10 mice for each group). After 24 h, each group is intraperitoneally injected with 0.9% normal saline (control group), bufalin or bufalin liposome at the same dosage (obtained by Example 1, 1 mg/kg, the dosage is the amount of bufalin in liposome, and the actual dosage of liposome is calculated from encapsulation efficiency) and Huachasu injection (1 ml/kg, the dosage is obtained by converting clinically commonly used dosage into mouse administration dosage) respectively every day. The survival situations of mice within 35 days are observed and recorded, and the life extension rate is calculated. Life extension rate (%)=(average survival time of administration group/average survival time of control group-1)×100. Data are expressed as X±SEM. Statistical significance (P<0.05) for each variable was estimated by Student's t-test or ANOVA analysis.

For data set [2], the system named is patient with liver cancer or pancreas cancer. Kind of data set: Clinical tolerance of Huachasu injection (literature, Meng Z. et al.). Type of data set: in vivo, human. The settings on record: worked out from the Huachasu injection dose and its bufalin content. The text has this: At present, a Huachasu injection, prepared by dissolving Venenum Bufonis in normal saline, has been used for the clinical treatment of cancer in China. It has been reported that the combination of gemcitabine-oxaliplatin with Huachasu can enhance the chemotherapeutic effect in the treatment of patients with advanced gallbladder cancer (Qin T J, et al. World J Gastroenterol. 2008, 14(33):5210-6). […] However, the Huachasu injection is a mixture solution of alkaloids in Venenum Bufonis, and the content of bufalin contained therein is very low due to the poor water solubility of bufalin.

Data set [3] concerns colon cancer SW1116 cells. Kind of data set: Growth inhibition on tumor cells (MTT). Type of data set: cell-based. The settings on record: Homo sapiens. On the procedure: The cells of human cervical carcinoma Hela, lung cancer A549, gastric cancer SGC7901, liver cancer HepG2, myeloid leukemia HL-60 and colon cancer SW1116 are cultured in DMEM or RPMI 1640 medium (containing 10% inactived fetal bovine serum, 100 U·ml^−1 penicillin and 100 mg·l^−1 streptomycin) in a humidified 5% CO2 atmosphere at […]. The cells in logarithmic phase are collected, inoculated into 96-well plate at a density of 3×10^3/well (each well of 100 μl), and cultured for 24 h under 37° C., 5% CO2 and saturated humidity condition. A negative control group (culture solution) and administration groups with different concentrations are set up for the test. 1-300 nmol/1 bufalin or bufalin liposome (prepared according to the method of Example 1) is added into each culture well, followed by culturing in an incubator under 37° C., 5% CO2 and saturated humidity for 48 h, adding 20 μl of MTT solution (5 g/l) into each well, culturing for 4 h, and centrifuging. The supernatant was aspirated, and 150 μl dimethyl sulfoxide (DMSO) is added to each well and slightly shaking to dissolve crystal. The OD values are measured at 570 nm by an automatic microplate reader, and the cell growth inhibition rates are calculated according to following formula: cell growth inhibition rate/%=100−(OD value of administration group-OD value of blank control group)/(OD value of control group-OD value of bland control group)×100. IC50 (drug concentration at 50% inhibition on cell proliferation) value is calculated using mathematical method. Data are expressed as X±SEM. Statistical significance (P<0.05) for each variable is estimated by Student's t-test or ANOVA analysis.

Data set [4] relates to HepG2 tumour bearing mice. Kind of data set: In vivo therapeutic effect on liver cancer, HepG2 tumour bearing nude mice. Particulars: i.p. daily, 1 mg/kg bufalin or 1 ml/kg Huachasu. Also noted: species or system mouse. On the procedure: Human hepatocellular carcinoma cells, HepG2, are cultured in DMEM medium supplemented with 10% FBS, 100 U/ml penicillin G, and 100 μg/ml streptomycin in a humidified 5% CO2 atmosphere at 37° C. Male BALB/c nude mice (6-week-aged) are fed in pathogen-free conditions. The bufalin liposome is prepared according to the method of Example 1. Exponentially growing HepG2 cells are collected, and prepared into cell suspension with PBS. 0.2 ml of the cell suspension (2×10^7 cells) is injected subcutaneously into the right back of each mouse. When the tumor grows to 100 mm^3 (about one week), the mice are randomly divided into 4 groups (8 mice for each group), and intraperitoneally injected with 0.9% normal saline (control group), bufalin or bufalin liposome at the same dosage (Example 1, 1 mg/kg, the dosage is the amount of bufalin in liposome, and the actual dosage of liposome is calculated from encapsulation efficiency) and Huachasu injection (1 ml/kg, the dosage is obtained by converting clinically commonly used dosage into mouse administration dosage) respectively every day. […] The tumor volume is calculated according to the formula: V(mm^3)=(maximal diameter×minimal diameter^2)/2. After 14 days, the mice are sacrificed in anesthesia with overdose of pentobarbital sodium, followed by completely stripping the tumor body and weighing, and calculating the tumor inhibition rate by: tumor inhibition rate (%)=(average tumor weight of control group-average tumor weight of administration group)/average tumor weight of control group×100. Data are expressed as X±SEM, and statistically processed via t-test or variance analysis.

Data set [5] can be described thus: Evaluation of acute toxicities in mice (LD50, Bliss method). The settings on record: mouse, in vivo, ip; male Balb/c mice, intraperitoneal, observed 7 days; dose as amount of bufalin; read-out: half-lethal dose (LD50). On the procedure:
Male Balb/c mice (20-25 g) are purchased from the Laboratory Animal Center of Fourth Military Medical University. Bufalin is dissolved with anhydrous ethanol first, and then diluted with normal saline to 0.2 mg/ml (the final concentration of ethanol is below 1%). Bufalin liposome (prepared according to the method of Example 1) is directly dissolved in normal saline to obtain 0.2 mg/ml solution. 10 animals of each group are intraperitoneally injected with bufalin or bufalin liposome at dosages of 0.5, 1, 2, 4 and 6 mg/kg respectively (the dosage is the amount of bufalin in liposome, and the actual dosage of liposome is calculated from encapsulation efficiency). The mortality of mice, the toxic effect and any adverse reactions such as diarrhea, weight loss and behavior change are observed continuously for 7 days. The half-lethal dose (LD50) is calculated using graphical Bliss method.

For orientation: inhibition means the percentage by which the read-out fell short of the control. Usually IC50 stands for the concentration at which inhibition is half-maximal. A higher IC50 goes with lower potency. By LD50 is commonly meant the dose at which mortality reaches 50%. `C[C@]12CC[C@H](O)C[C@H]1CC[C@@H]1[C@@H]2CC[C@]2(C)[C@@H](c3ccc(=O)oc3)CC[C@]12O` [bufalin, 3β,14-dihydroxy-5β, 20(22)-bufadienolide]: the “Average survival time” value in data set [1] (observed 35 days, 1 mg/kg) was 22.8 ± 3.1 days. Moreover, the “Life extension rate (%)” value in data set [1] (versus control group) was 36.5%. Moreover, in data set [2], the “amount of bufalin tolerated by an adult patient every day” value was “up to 2.3 μg”. The inhibition at 0.001 µM in data set [3] (SW 1116, SW1116, 1 nmol/l, 48 h, read-out: Inhibition rate (%)) was determined as 1.9 ± 0.3%. In addition, the inhibition at 0.003 µM in data set [3] (SW 1116, SW1116, 3 nmol/l, 48 h, read-out: Inhibition rate (%)) came out at 2.7 ± 0.1%. The inhibition at 0.01 µM in data set [3] (SW 1116, SW1116, 10 nmol/l, 48 h, read-out: Inhibition rate (%)) was 18 ± 3.9%. Further, the inhibition at 0.03 µM in data set [3] (SW 1116, SW1116, 30 nmol/l, 48 h, read-out: Inhibition rate (%)) is 42.7 ± 6.3%. Also, the inhibition at 0.1 µM in data set [3] (SW 1116, SW1116, 100 nmol/l, 48 h, read-out: Inhibition rate (%)) stood at 73.1 ± 8.8%. Further, the inhibition at 0.3 µM in data set [3] (SW 1116, SW1116, 300 nmol/l, 48 h, read-out: Inhibition rate (%)) stood at 99.4 ± 11.6%. In data set [3] (SW 1116, SW1116, 48 h), this compound registered an IC50 of 30.6 nM. In data set [4] (after 14 days, versus control group), this compound showed a tumor inhibition rate of 21.8%. Further, the “Tumor volume (mm^3)” value was 410.5 ± 75.3 mm^3 in data set [4] (treatment day 0 (prior to administration)); 1055.8 ± 203.0 mm^3 in data set [4] (treatment day 2); 1621.0 ± 303.8 mm^3 in data set [4] (treatment day 4); 2215.9 ± 338.1* mm^3 in data set [4] (treatment day 6); 2115.7 ± 349.7* mm^3 in data set [4] (treatment day 8); 2565.4 ± 385.2* mm^3 in data set [4] (treatment day 10). The “Tumor volume (mm^3)” value is 2691.9 ± 407.1* mm^3 in data set [4] (treatment day 12); 3205.6±711.5 mm^3 in data set [4] (treatment day 14, 1 mg/kg); 3205.6 ± 711.5* mm^3 in data set [4] (treatment day 14, listed as Bufalin, 1 mg/kg). In data set [5], the LD50 at 7 days was 2 mg/kg.
